Values after ≈ are worked out from the molar mass of the structure shown. Like-named read-outs stand apart in the source and are kept apart here.
Legend:
T. foetus = assay: In vitro antiprotozoal activity against T. foetus; assay type: cell-based; conditions: Tritrichomonas foetus, read-out: Activity IC50 T. foetus
Text: (§1) Several 5-nitroimidazoles have been tested for in vitro antiprotozoal activity against T. foetus, T. vaginalis, and G. lamblia.

T. vaginalis = assay: In vitro antiprotozoal activity against T. vaginalis; assay type: cell-based; conditions: Trichomonas vaginalis, read-out: Activity IC50 T. vaginalis
Text: as §1

G. lamblia = assay: In vitro antiprotozoal activity against G. lamblia; assay type: cell-based; conditions: Giardia duodenalis, read-out: Activity IC50 G. lamblia
Text: as §1

Mammalian rat hepatocyte = assay: DNA single strand breaks in mammalian rat hepatocytes (genotoxicity); conditions: % relative to parent compound not containing 4-substituent
Text: as §1
^b Mammalian rat hepatocyte single strand DNA breaks expressed as %
relative to parent compound not containing 4substituent.

protozoa and bacteria = conditions: U.S. Pat. No. 3,646,027; cited from earlier work
[1] = background; cited from earlier work
[2] = background; cited from earlier work; remark: listed apart in the source

IC50 (T. foetus; in vitro, T. foetus)	IC50 (T. vaginalis; in vitro, T. vaginalis)	IC50 (G. lamblia; in vitro, G. lamblia)	Compound	Extent of DNA Damage (Mammalian rat hepatocyte)	IC50 (T. foetus)	IC50 (T. vaginalis)	IC50 (G. lamblia)	activity against protozoa and bacteria (protozoa and bacteria)	mutagenicity [1]	drug residual levels [2]
5.25 µg/mL (≈ 28.4 µM)	9 µg/mL (≈ 48.6 µM)	25 µg/mL (≈ 135 µM)	Cc1nc(CCO)c([N+](=O)[O-])n1C [Compound V]	–	–	–	–	–	–	–
1.9 µg/mL (≈ 10.3 µM)	12.5 µg/mL (≈ 67.5 µM)	25 µg/mL (≈ 135 µM)	Cc1nc(CCO)n(C)c1[N+](=O)[O-] [IV, 1,4-Dimethyl-2-(2-hydroxyethyl)-5-nitroimidazole]	–	–	–	–	–	–	–

The next lines start with the compound.

Compound	IC50 (T. foetus; in vitro, T. foetus)	IC50 (T. vaginalis; in vitro, T. vaginalis)	IC50 (G. lamblia; in vitro, G. lamblia)	Extent of DNA Damage (Mammalian rat hepatocyte)	IC50 (T. foetus)	IC50 (T. vaginalis)	IC50 (G. lamblia)	activity against protozoa and bacteria (protozoa and bacteria)	mutagenicity [1]	drug residual levels [2]
Cc1nc(COC(N)=O)n(C)c1[N+](=O)[O-] [III, (1,4-Dimethyl-5-nitroimidazol-2-yl)methylcarbamate]	1 µg/mL (≈ 4.67 µM)	1.9 µg/mL (≈ 8.87 µM)	25 µg/mL (≈ 117 µM)	6%	–	–	–	–	–	–
Cc1ncc([N+](=O)[O-])n1CCO [II]	0.43 µg/mL (≈ 2.51 µM)	0.58 µg/mL (≈ 3.39 µM)	2 µg/mL (≈ 11.7 µM)	100%	–	–	–	–	–	–
Cn1c([N+](=O)[O-])cnc1COC(N)=O [I]	–	–	–	100%	0.42 µg/mL (≈ 2.1 µM)	0.54 µg/mL (≈ 2.7 µM)	0.9 µg/mL (≈ 4.5 µM)	potent	strong mutagenicity	high drug residual levels

Source: patent publication US4678799A, “1,2(1,4)-dimethyl-4(2)-(2-hydroxyethyl)-5-nitro-imidazole antiprotozoal agents with reduced mutagenicity” (Merck & Co., Inc., priority 1984, dated 1987)
